For one assay, the system named is D. penumoniae. As to the kind of experiment: Bacterial inhibition, MIC in brain heart infusion broth. The format is cell-based. The following applies: read-out: MIC (minimal inhibitory concentration). The source says: (§1) ^a Minimal inhibitory concentration in brain heart infusion broth.
Another assay has as its system E. coli. The description is as above. The following applies: Escherichia coli, read-out: MIC (minimal inhibitory concentration). Format: cell-based.
Text: as §1

A further assay has as its system K. pneumoniae. Described as above. The following applies: Klebsiella pneumoniae, read-out: MIC (minimal inhibitory concentration). The format is cell-based.
Text: as §1

The test system of a further assay is P. vulgaris. The description is as above. Format: cell-based. The following applies: Proteus vulgaris, read-out: MIC (minimal inhibitory concentration).
Text: as §1

A further assay deals with Ps. aeruginosa. The assay is described as above. The format is cell-based. The following applies: Pseudomonas aeruginosa, read-out: MIC (minimal inhibitory concentration).
Text: as §1

For the next assay, the system named is S. Hemolyticus. Described as above. The following applies: read-out: MIC (minimal inhibitory concentration). The format is cell-based.
Text: as §1

The subject of a further assay is S. aureus. The description is as above. Format: cell-based. The following applies: Staphylococcus aureus, read-out: MIC (minimal inhibitory concentration).
Text: as §1

The test system of another assay is St. Faecalis. The description is as above. The following applies: Enterococcus faecalis, read-out: MIC (minimal inhibitory concentration). Format: cell-based.
Text: as §1

The target of a further assay is E. coli RNA Polymerase (Escherichia coli, UniProt P0A8V2). The assay is described as follows: E. coli RNA Polymerase Inhibition. Format: biochemical. The following applies: 0.25 h; for remaining activity at 500 µM: 0.5 μM/ml of compound, room temperature, 15 minutes, control = 100; for inhibition at 500 µM: at a concentration of 0.5 μmole/ml (Table 4). The procedure: The assay mixtures contained, in a total volume of 0.25 ml: (Tris)HCl
E. coli RNA Polymerase, sequence (P0A8V2 whole entry): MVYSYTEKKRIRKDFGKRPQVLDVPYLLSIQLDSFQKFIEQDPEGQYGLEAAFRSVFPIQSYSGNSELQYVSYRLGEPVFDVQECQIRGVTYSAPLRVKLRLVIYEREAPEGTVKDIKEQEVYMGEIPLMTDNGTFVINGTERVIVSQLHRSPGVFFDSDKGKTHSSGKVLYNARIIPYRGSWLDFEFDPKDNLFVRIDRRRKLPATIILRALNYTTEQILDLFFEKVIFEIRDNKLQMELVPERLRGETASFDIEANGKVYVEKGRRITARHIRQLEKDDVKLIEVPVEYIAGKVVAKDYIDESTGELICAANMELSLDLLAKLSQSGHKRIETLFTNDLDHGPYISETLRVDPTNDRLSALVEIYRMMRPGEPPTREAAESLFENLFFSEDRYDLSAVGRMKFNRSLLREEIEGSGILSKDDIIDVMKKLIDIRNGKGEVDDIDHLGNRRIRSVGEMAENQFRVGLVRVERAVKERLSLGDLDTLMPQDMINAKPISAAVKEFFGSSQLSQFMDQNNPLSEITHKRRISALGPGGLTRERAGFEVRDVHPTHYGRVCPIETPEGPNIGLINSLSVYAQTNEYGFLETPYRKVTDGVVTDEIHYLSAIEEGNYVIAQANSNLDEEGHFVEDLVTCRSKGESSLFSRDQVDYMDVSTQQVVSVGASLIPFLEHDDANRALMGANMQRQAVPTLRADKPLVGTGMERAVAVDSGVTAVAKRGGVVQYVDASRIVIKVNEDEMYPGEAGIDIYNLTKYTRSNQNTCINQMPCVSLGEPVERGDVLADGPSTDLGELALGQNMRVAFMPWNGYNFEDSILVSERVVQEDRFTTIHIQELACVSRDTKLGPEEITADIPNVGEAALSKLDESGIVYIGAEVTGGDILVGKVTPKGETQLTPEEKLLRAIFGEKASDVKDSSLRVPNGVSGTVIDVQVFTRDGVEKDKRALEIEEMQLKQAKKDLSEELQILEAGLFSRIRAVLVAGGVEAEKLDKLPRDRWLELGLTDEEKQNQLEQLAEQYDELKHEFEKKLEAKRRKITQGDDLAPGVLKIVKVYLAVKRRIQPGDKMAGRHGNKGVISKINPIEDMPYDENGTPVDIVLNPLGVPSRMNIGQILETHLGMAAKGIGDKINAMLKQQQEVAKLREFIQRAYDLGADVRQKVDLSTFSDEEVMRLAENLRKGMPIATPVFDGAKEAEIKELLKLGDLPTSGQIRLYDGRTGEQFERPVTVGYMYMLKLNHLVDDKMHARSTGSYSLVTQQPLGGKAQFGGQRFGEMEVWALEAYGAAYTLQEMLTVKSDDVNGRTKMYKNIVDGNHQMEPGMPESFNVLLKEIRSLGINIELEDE
E. coli RNA Polymerase, sequence (P0A8T7 whole entry partner): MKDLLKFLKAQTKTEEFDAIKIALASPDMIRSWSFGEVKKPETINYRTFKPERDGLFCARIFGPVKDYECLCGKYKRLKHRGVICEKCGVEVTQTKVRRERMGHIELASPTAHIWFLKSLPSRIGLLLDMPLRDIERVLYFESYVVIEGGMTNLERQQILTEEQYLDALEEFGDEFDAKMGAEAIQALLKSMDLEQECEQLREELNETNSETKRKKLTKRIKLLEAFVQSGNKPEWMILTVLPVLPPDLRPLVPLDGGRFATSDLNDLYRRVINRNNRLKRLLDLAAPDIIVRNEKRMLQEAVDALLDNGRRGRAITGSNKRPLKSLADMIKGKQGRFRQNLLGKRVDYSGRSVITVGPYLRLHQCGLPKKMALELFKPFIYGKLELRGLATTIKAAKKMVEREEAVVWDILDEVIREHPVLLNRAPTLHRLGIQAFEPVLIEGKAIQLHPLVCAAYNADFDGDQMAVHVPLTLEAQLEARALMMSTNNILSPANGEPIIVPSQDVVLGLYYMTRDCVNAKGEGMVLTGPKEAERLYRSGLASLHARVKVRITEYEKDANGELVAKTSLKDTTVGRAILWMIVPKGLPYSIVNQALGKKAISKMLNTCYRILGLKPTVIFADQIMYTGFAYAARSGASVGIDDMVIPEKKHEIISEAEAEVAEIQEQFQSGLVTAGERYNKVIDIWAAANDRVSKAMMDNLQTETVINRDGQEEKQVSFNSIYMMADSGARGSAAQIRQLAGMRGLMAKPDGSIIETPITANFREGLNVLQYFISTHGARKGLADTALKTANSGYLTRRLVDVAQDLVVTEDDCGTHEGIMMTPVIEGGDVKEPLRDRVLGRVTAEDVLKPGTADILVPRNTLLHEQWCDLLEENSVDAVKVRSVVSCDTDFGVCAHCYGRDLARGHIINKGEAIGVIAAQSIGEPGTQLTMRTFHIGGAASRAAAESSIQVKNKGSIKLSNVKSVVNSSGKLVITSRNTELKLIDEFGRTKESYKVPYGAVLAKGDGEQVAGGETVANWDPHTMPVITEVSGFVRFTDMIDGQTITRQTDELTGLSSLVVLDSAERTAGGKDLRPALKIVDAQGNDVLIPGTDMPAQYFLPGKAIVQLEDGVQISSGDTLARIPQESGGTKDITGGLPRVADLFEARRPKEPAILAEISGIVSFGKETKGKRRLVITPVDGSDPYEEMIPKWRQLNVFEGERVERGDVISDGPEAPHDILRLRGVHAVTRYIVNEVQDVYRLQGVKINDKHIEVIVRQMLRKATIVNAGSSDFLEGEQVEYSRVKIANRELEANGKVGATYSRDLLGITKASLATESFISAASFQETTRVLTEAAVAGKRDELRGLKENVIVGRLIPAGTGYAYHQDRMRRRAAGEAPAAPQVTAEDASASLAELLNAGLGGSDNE
E. coli RNA Polymerase, sequence (P0A7Z4 whole entry partner): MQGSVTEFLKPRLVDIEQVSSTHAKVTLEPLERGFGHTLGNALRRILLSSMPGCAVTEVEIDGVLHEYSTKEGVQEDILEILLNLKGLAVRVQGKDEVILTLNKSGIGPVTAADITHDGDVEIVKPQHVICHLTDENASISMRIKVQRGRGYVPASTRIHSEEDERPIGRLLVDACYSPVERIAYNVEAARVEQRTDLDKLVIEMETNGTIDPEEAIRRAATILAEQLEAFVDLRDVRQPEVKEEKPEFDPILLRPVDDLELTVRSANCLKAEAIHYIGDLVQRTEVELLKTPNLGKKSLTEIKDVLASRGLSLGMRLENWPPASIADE
E. coli RNA Polymerase, sequence (P0A800 whole entry partner): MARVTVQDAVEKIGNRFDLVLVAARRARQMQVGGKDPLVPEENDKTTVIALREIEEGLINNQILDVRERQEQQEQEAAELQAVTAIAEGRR
buffer, pH 7.9, 5 μmoles; MgCl2, 1 μmole; mercaptoethanol, 3
μmoles; MpCl2, 0.25 μmole: GTP, UTP, and CTP, 0.1 μmole
polymerase, 0.5 units; and […] of compound. Reactions were run a
room temperature for 15 minutes.
(§2) Table 4, below, relates to the activity of compounds of Examples VIII through XVIII as bacterial RNA polymerase inhibitors and as inhibitors of reverse transcriptase when tested in the manner the compounds of Examples I through V as related, supra, in Tables 2 and 3.
*At a concentration of 0.5 μmole/ml.

Assay [1] has as its system Reverse Transcriptase of Rauscher Leukemia Virus. As to the kind of experiment: Inhibition of Reverse Transcriptase of Rauscher Leukemia Virus. The format is biochemical. Also on record: Reverse Transcriptase of Rauscher Leukemia Virus % Inhibition: concentration or dose not given beside the values. The following applies: for Reverse Transcriptase of Rauscher Leukemia Virus % Inhibition: 37° C. for 90 minutes (Table 3); for Reverse transcriptase activity, cpm: 37° C. for 90 minutes, control 5396 cpm; for RLV Reverse Transcriptase % Inhibition: at a concentration of 0.25 μmole/ml (Table 4), 90 min. The procedure: *(The reverse transcriptase activity was measured at 37° C. for 90
as §2
**At a concentration of 0.25 μmole/ml.

In brackets after ≈: the same amount, converted by molar mass. Some results are limits rather than exact numbers.

As usually defined, the remaining activity is the signal under treatment as a percentage of the control signal. In general, inhibition refers to the share of the control response that was lost under treatment.

Turning to `COC1=C2CC(C)CC(OC)C(O)C(C)/C=C(\C)C(OC(N)=O)C(OC)/C=C\C=C(/C)C(=O)NC(=C(C=NN3CCN(Cc4ccccc4)CC3)C1=O)C2=O` (stereo not shown) [V], the MIC in the assay on D. penumoniae came to 62.5 µg/mL (≈ 82 µM); in the assay on E. coli, 500 µg/mL (≈ 656 µM); in the assay on K. pneumoniae, 500 µg/mL (≈ 656 µM); in the assay on P. vulgaris, 500 µg/mL (≈ 656 µM); in the assay on Ps. aeruginosa it was 250 µg/mL (≈ 328 µM); in the assay with S. Hemolyticus it was 125 µg/mL (≈ 164 µM). Moreover, the MIC in the assay on S. aureus and in the assay with St. Faecalis was 500 µg/mL (≈ 656 µM) in each case. Moreover, the remaining activity at 500 µM at E. coli RNA Polymerase is 88%. The “Reverse Transcriptase of Rauscher Leukemia Virus % Inhibition” value in [1] was determined as 97.1%. In assay [1], the “Reverse transcriptase activity, cpm” value stood at 154 cpm.

As to `COC1=C2CC(C)CC(OC)C(O)C(C)/C=C(\C)C(OC(N)=O)C(OC)/C=C\C=C(/C)C(=O)NC(=C(C=NC(C)(C)C)C1=O)C2=O` (stereo not shown) [Example I], the MIC amounted to 250 µg/mL (≈ 388 µM) in the assay on D. penumoniae; 500 µg/mL (≈ 777 µM) in the assay on E. coli; 500 µg/mL (≈ 777 µM) in the assay with K. pneumoniae; 500 µg/mL (≈ 777 µM) in the assay with P. vulgaris; 250 µg/mL (≈ 388 µM) in the assay with Ps. aeruginosa; 250 µg/mL (≈ 388 µM) with S. Hemolyticus. The MIC with S. aureus was 500 µg/mL (≈ 777 µM); in the assay with St. Faecalis it was over 500 µg/mL. The remaining activity at 500 µM on E. coli RNA Polymerase is 99%. Further, in assay [1], the “Reverse Transcriptase of Rauscher Leukemia Virus % Inhibition” value came out at 93.0%. Further, in assay [1], the “Reverse transcriptase activity, cpm” value was found to be 376 cpm.

In turn, `COC1/C=C\C=C(/C)C(=O)Nc2cc3nc4ccccc4nc3c(c2O)CC(C)CC(OC)C(O)C(C)/C=C(\C)C1OC(N)=O` (stereo not shown) [VIII, demethoxygeldanazine] showed an inhibition at 500 µM on E. coli RNA Polymerase of 5 to 16%. The “RLV Reverse Transcriptase % Inhibition” value in [1] is listed as 98%.

Molecule `COC1/C=C\C=C(/C)C(=O)Nc2cc3nc4cc(Br)ccc4oc-3c(c2=O)CC(C)CC(OC)C(O)C(C)/C=C(\C)C1OC(N)=O` (stereo not shown) [XV] came in with an inhibition at 500 µM against E. coli RNA Polymerase of 60%. For the same molecule, the “RLV Reverse Transcriptase % Inhibition” value in [1] is listed as 82 - 100%.

Regarding `COC1/C=C\C=C(/C)C(=O)Nc2cc3nc4cc(Cl)ccc4oc-3c(c2=O)CC(C)CC(OC)C(O)C(C)/C=C(\C)C1OC(N)=O` (stereo not shown) [XVI], the “RLV Reverse Transcriptase % Inhibition” value in assay [1] amounted to 60%.

With `COC1/C=C\C=C(/C)C(=O)Nc2cc3nc4ccc(C)cc4oc-3c(c2=O)CC(C)CC(OC)C(O)C(C)/C=C(\C)C1OC(N)=O` (stereo not shown) [XIII], 500 µM produced 21% inhibition on E. coli RNA Polymerase. Also, in assay [1], the “RLV Reverse Transcriptase % Inhibition” value amounted to 77%.

Turning to `COC1/C=C\C=C(/C)C(=O)Nc2cc3nc4ccccc4oc-3c(c2=O)CC(C)CC(OC)C(O)C(C)/C=C(\C)C1OC(N)=O` (stereo not shown) [XI], on E. coli RNA Polymerase, the inhibition at 500 µM fell in the range of 61 to 67%. Further, the “RLV Reverse Transcriptase % Inhibition” value in assay [1] is on record as 98%.

Consider `COC(=O)[C@@H](NC(=O)c1ccc(C)c2oc3c4c(=O)c(cc-3nc12)NC(=O)/C(C)=C/C=C\C(OC)C(OC(N)=O)/C(C)=C/C(C)C(O)C(OC)CC(C)C4)[C@@H](C)O` (stereo partly shown) [XVIII], for which, in assay [1], the “RLV Reverse Transcriptase % Inhibition” value is given as 0%.

Take `COC(=O)c1cccc2oc3c4c(=O)c(cc-3nc12)NC(=O)/C(C)=C/C=C\C(OC)C(OC(N)=O)/C(C)=C/C(C)C(O)C(OC)CC(C)C4` (stereo not shown) [XVII]: the “RLV Reverse Transcriptase % Inhibition” value in [1] is recorded as 0%.

For `CCCCCCCCON=CC1=C2NC(=O)/C(C)=C/C=C\C(OC)C(OC(N)=O)/C(C)=C/C(C)C(O)C(OC)CC(C)CC(=C(OC)C1=O)C2=O` (stereo not shown) [IV], the MIC in the assay on D. penumoniae was 7.8 µg/mL (≈ 10.9 µM); in the assay with E. coli, over 500 µg/mL; in the assay with K. pneumoniae, over 500 µg/mL; with P. vulgaris, over 500 µg/mL; in the assay on Ps. aeruginosa it was over 500 µg/mL; in the assay on S. Hemolyticus, 7.8 µg/mL (≈ 10.9 µM). Also, the MIC with S. aureus and in the assay with St. Faecalis was over 500 µg/mL throughout. Further, the remaining activity at 500 µM on E. coli RNA Polymerase is 110%. Also, the “Reverse Transcriptase of Rauscher Leukemia Virus % Inhibition” value in assay [1] worked out at 94.4%. The “Reverse transcriptase activity, cpm” value in assay [1] came to 303 cpm.

`COC1/C=C\C=C(/C)C(=O)Nc2cc3nc4cccc(C)c4oc-3c(c2=O)CC(C)CC(OC)C(O)C(C)/C=C(\C)C1OC(N)=O` (stereo not shown) [XIV]: on E. coli RNA Polymerase, the inhibition at 500 µM was 6%. Further, the “RLV Reverse Transcriptase % Inhibition” value in assay [1] is on record as 72%.

`COC1/C=C\C=C(/C)C(=O)Nc2cc3nc4cc(C)ccc4oc-3c(c2=O)CC(C)CC(OC)C(O)C(C)/C=C(\C)C1OC(N)=O` (stereo not shown) [XII] had an inhibition at 500 µM against E. coli RNA Polymerase of 9%. Further, in [1], the “RLV Reverse Transcriptase % Inhibition” value turned out to be 89%.

In the case of `COC1=C2CC(C)CC(OC)C(O)C(C)/C=C(\C)C(OC(N)=O)C(OC)/C=C\C=C(/C)C(=O)NC(=C(C=NOC(c3ccccc3)c3ccccc3)C1=O)C2=O` (stereo not shown) [III], the MIC is 62.5 µg/mL (≈ 81.2 µM) in the assay with D. penumoniae; over 500 µg/mL in the assay on E. coli; over 500 µg/mL in the assay with K. pneumoniae; over 500 µg/mL in the assay on P. vulgaris; over 500 µg/mL in the assay on Ps. aeruginosa; 31.2 µg/mL (≈ 40.5 µM) with S. Hemolyticus. Moreover, the MIC in the assay on S. aureus and in the assay on St. Faecalis was over 500 µg/mL in each case. The remaining activity at 500 µM on E. coli RNA Polymerase came to 84%. For the same molecule, in assay [1], the “Reverse Transcriptase of Rauscher Leukemia Virus % Inhibition” value came to 98.6%. Moreover, the “Reverse transcriptase activity, cpm” value in [1] amounted to 75 cpm.

For `COC1=C2CC(C)CC(OC)C(O)C(C)/C=C(\C)C(OC(N)=O)C(OC)/C=C\C=C(/C)C(=O)NC(=C(C=NN3CCN(C)CC3)C1=O)C2=O` (stereo not shown) [II], the MIC turned out to be 500 µg/mL (≈ 729 µM) in the assay with D. penumoniae; 500 µg/mL (≈ 729 µM) in the assay with E. coli; 500 µg/mL (≈ 729 µM) in the assay with K. pneumoniae; 500 µg/mL (≈ 729 µM) in the assay with P. vulgaris; 250 µg/mL (≈ 365 µM) in the assay on Ps. aeruginosa; 500 µg/mL (≈ 729 µM) in the assay with S. Hemolyticus. The MIC in the assay on S. aureus and in the assay with St. Faecalis was over 500 µg/mL each time. Further, the remaining activity at 500 µM at E. coli RNA Polymerase was 106%. Also, in assay [1], the “Reverse Transcriptase of Rauscher Leukemia Virus % Inhibition” value is 93.4%. In addition, in assay [1], the “Reverse transcriptase activity, cpm” value came out at 357 cpm.
